Source: patent US20090170865A1, “Treatment of Prostate Cancer with Angiogenesis-Targeting Quinazoline-Based Anti-Cancer Compounds” (University of Kentucky Research Foundation, priority 2007, published 2009)
Where two headings read alike, the source gives them in different places.

What was measured:
DU-145 cells [1] = conditions: non-cytotoxic doses 5 and 10 μM
Method: (§1) a) Hoechst Staining. Cells were plated in 6-well culture dishes at 5×10^4 cells per/well and at subconfluency were treated with increasing concentrations of DZ-1-23, -38, -40, -42, and -50 (0-25 μM). After 24 and 48 hrs of treatment, cells were fixed with 4% (w/v) paraformaldehyde (Sigma) and stained with 10 μg/mL Hoechst 33342 (B2261; Sigma) in the presence of 0.1% Triton X-100 (Sigma) as previously described. Cells were visualized using a Zeiss Axiovert S100 fluorescent microscope (Thornwood, N.Y.) with a UV filter (365 nm) and cells with condensed chromatin were designated apoptotic (100× magnification). The apoptotic index was determined by counting three random fields in duplicate wells per group. Each experiment was performed twice. b) MTT assay: Subconfluent cultures of cells were exposed to increasing concentrations of DZ-1-23, -38, -40, -42, and -50 (0-25 μM). After treatment the medium was replaced with 250 μl of MTT (Sigma) (1 mg/ml) and incubated at 37° C. to form blue crystals. After 2 hrs the MTT was removed and replaced with DMSO (250 μl) and incubated overnight at 37° C. The DMSO-crystal solution's absorbance was read at 540 nm in a microplate reader (Bio-Tek Instruments, Winooski, VM). Numerical data represent the average of three independent experiments performed in triplicate. Cell Migration Assay. (Wounding assay) Confluent monolayers of PC-3, DU-145, HUVEC, or HMVEC-L cells were wounded with a toothpick. After wounding, medium was changed and DZ-3 or DZ-50 (5 μM). After incubation for 12 or 24 hrs, wounding areas were examined under light microscopy (Axiovert 10, Zeiss). Cells that had migrated to the wounded areas were counted under a microscope for quantification of cell migration. Migration was calculated as the average number of cells observed in five random high power (400×) wounded fields/per well in duplicate wells. Tube Formation Assay: In vitro Angiogenesis Evaluation: In vitro formation of tubular structures was studied on extracellular matrix using an angiogenesis kit as described by the manufacturer (Chemicon International, Inc., Temecula, Calif.). HUVEC or HMVEC-L (10×10^4 cells/well) of 96-well-plates were seeded onto ECMatrigel-coated wells in the presence or absence of DZ-3 or DZ-50 and VEGF. Cells were treated with cytokines as single agents or each in combination (e.g. DZ-50 and VEGF).

[2] = test system: HUVEC, HMVEC-L vascular endothelial cells; conditions: non-cytotoxic doses 5 and 10 μM
Method: as §1

PC-3 cells [3] = conditions: for apoptosis induction: 10 μmol/L, 24 h
Method: as §1

[4] = test system: integrins α2, α3, αV, and β3; conditions: PC-3 cells, data not shown
Method: (§2) FACS—Flow Cytometric Analysis: PC-3 cells were treated with DZ-50 (10 μM) and harvested with 0.5 mM EDTA solution. Prostate cancer epithelial cells were then incubated with hanks balanced salt solution (HBSS) supplemented with 2% BSA and 0.01% sodium azide for 30 min at 4° C. Cells were subsequently fixed in 4% (w/v) formaldehyde, washed, and incubated with the designated integrin antibody followed by FITC-conjugated goat anti-mouse secondary. Analysis was performed on a Partec FlowMax (Partec, Munster, Germany).

integrin β1 = conditions: 10 μmol/L
Method: as §2

[5] = test system: DU-145 human prostate cancer xenografts; conditions: for CD31+ (vascularity) / Ki67 (proliferation index), % / TUNEL (apoptotic index): DU-145 xenograft
Method: (§3) Tumorigenicity Studies. Human prostate cells (PC-3 and DU-145) suspended in PBS, were inoculated subcutaneously (s.c.) (2.5×10^6 cells/site) in the flank of male nude mice, 4-6 weeks of age. Tumors were measured every 48 hrs with a digital caliber, and tumor volumes were calculated using the formula length×(width)^2/2. When tumors reached ≈50 mm^3 mice were stratified into treatment groups of 6 mice/treatment. DZ-50 was administered at doses of 50, 100, and 200 mg/kg in 0.5% methylcellulose (w/v)+0.1% Tween-80 (v/v) in water, by oral gavage using a 22-gauge, 1.5-inch gavage needle. Animals were sacrificed after 2 wks of treatment unless otherwise indicated. In a separate experiment human prostate cells (PC-3) were inoculated as described above and dosing began (200 mg/kg) concurrently for 2 wks. Upon termination of the experiment, tumors were surgically excised and tissue specimens were fixed in a 10% (v/v) formalin solution (Sigma) and subsequently embedded in Paraplast X-tra paraffin (VWR). Blocks were sectioned (6 μm) on a Finesse Microtome (ThermoShandon, UK).
(§4) Spontaneous Metastasis Assay: Human prostate cells (PC-3) were injected (2×10^6 cells/80 μl of PBS) in the tail vein of male nude mice, 4-6 wks of age; mice were maintained in a pathogen-free environment. At 10 days post-inoculation, 200 mg/kg of DZ-50 was given daily (via oral gavage as described above). After 2 wks of treatment, DZ-50 treated and vehicle control mice were sacrificed and lungs, spleen, kidneys, and prostate organs were excised and subjected to examination for metastatic tumor lesions. Apoptosis Evaluation Apoptotic cells were detected using the ApopTago Peroxidase In Situ Apoptosis Kit (Chemicon, Temecula, Calif.). Briefly, paraffin-embedded sections were treated with Proteinase K (Dako, Carpinteria, Calif.) and were subsequently incubated with terminal deoxynucleotidyl transferase enzyme. Terminal deoxynucleotidyl transferase-mediated deoxyuridine triphosphate nick end labeling (TUNEL)-positive cells were counted in five different fields (400×) and the apoptotic index was determined based on the number of apoptotic cells over the total number of cells. Vascularity Evaluation: CD31 staining was performed for endothelial cells using enzymatic digestion with Proteinase K (Dako). The primary antibody used was the mouse anti-human CD31 specific for endothelial cells from Dako (overnight incubation at 4° C.). CD31-positive endothelial cells were counted in five different fields (400×). Cell Proliferation Cell proliferation index was evaluated on the basis of Ki67 nuclear antigen immunoreactivity. Following antigen retrieval slides were incubated with an antibody directed against the Ki67 nuclear antigen (AMAC, Westbrook, Mass.). Ki67+ cells were counted from five different fields (400×).

[6] = test system: PC-3 human prostate cancer xenografts; conditions: for CD31+ (vascularity) / Ki67 (proliferation index), % / TUNEL (apoptotic index): PC-3 xenograft
Method: as §3, §4

[7] = test system: CAM blood vessel development; conditions: 48 hrs, with VEGF or bFGF
Method: Fertilized chicken eggs were incubated at 37° C. At E8 a window was created to allow visualization of the egg shell membrane. 6 mm blank paper discs (BD) were placed on the egg shell membrane along with VEGF (100 ng) or bFGF (100 ng) and DZ-50. The windows were sealed with porous adhesive and allowed to incubate 48 hrs. At E10 the adhesive was removed along with the egg shell membrane to expose the CAM and 4% paraformaldehyde was added. Following excision the number of vessels per CAM was quantified by counting under a dissecting microscope.

[8] = data not shown
[9] = test system: endothelial and epithelial cell lines; assay: Cell viability / cell death evaluation (MTT assay); assay type: cell-based, human
HUVEC = assay: Tube formation assay (in vitro angiogenesis); assay type: cell-based, human; conditions: for vascular endothelial cell tube formation: 10 μmol/L, Matrigel, 24 hrs
[10] = test system: PC-3 cells on HMVEC-L monolayer; conditions: 6 hrs of exposure, non-cytotoxic doses
Method: Sterile (12 mm diameter) glass coverslips were coated with Matrigel (Becton Dickson, Franklin Lakes, N.J.) at a dilution of 1:8 and air dried at room temperature (1 hr). Coverslips received approximately 6.25×10^4 HMVEC-L to form a complete monolayer. The cells were allowed to spread on the Matrigel for 24 hrs prior to the experiment. PC-3 cells were resuspended in EGM-2MV (Cambrex) and added to the HMVEC-L monolayer at a concentration of 8×10^3 cells/coverslip. Co-cultures were incubated at 37° C. at 5% CO2 for 3, 6, 9, 12, and 24 hrs. Prior to the addition of prostate epithelial cells, cells were incubated with the lipophilic tracer 1,1′-dioctadecyl-3,3,3′,3′-tetramethylindocarbocyanine perchlorate (DiI) (Invitrogen, Carlsbad, Calif.) for 20 min at 10 μg/ml to stain cell membranes. To label F-actin, PC-3 cells, or co-cultures of PC-3 cells HMVEC-L were fixed for 10 min at room temperature in 2% paraformaldehyde in PBS, and were permeabilized for 5 min with a buffer containing 15 mM Tris, 120 mM NaCl, 2 mM EDTA, 2 mM EGTA, and 0.5% Triton X-100 (pH 7.4). […] Coverslips were mounted with Vectashield (Vector Laboratories, Burlington, Canada) on glass slides and analyzed with confocal microscopy.

[11] = test system: PC-3 cells injected in the tail vein; conditions: 200 mg/kg p.o. from 10 d postinoculation, 21 days of treatment, vs untreated control mice
Method: as §4, with “Vascularity Evaluation: CD31 staining was performed for endothelial cells using enzymatic digestion with Proteinase K (Dako). The primary antibody used was the mouse anti-human CD31 specific for endothelial cells from Dako (overnight incubation at 4° C.).” left out, “Following antigen retrieval slides were incubated with an antibody directed against the Ki67 nuclear antigen (AMAC, Westbrook, Mass.).” left out

DU-145 cells [12] = test system: DU-145 cells
Method: (§5) Prostate cancer cells PC-3 and DU-145 cells were treated for 3, 6, 9, 12, or 15 hrs with DZ-50 (5 μM) and harvested. 5×10^4 cells were added to each well of a 6-well culture dish coated with either collagen or fibronectin and incubated for 30 min at 37° C. Following incubation cells were fixed and the number of cells/well recorded. Numerical data represent the average of three independent experiments in triplicate.

PC-3 cells [13] = conditions: 6, 9, and 12 h exposure, 5 and 10 μmol/L
Method: as §5

In the case of `CC(C)Oc1cc2nc(N3CCN(S(=O)(=O)c4ccc(-c5ccccc5)cc4)CC3)nc(N)c2cc1OC(C)C` [DZ-50], the “prostate cancer epithelial cell migration (DU-145)” value (DU-145 cells [1]) is reported as “significant inhibition”, the endothelial cell migration [2] is reported as “significant inhibition” and the apoptosis induction (PC-3 cells [3]) is reported as “not effective at inducing apoptosis”. The “prostate cancer epithelial cell migration (PC-3)” value (PC-3 cells [3]; non-cytotoxic doses 5 and 10 μM) was “significant inhibition”, the “surface expression of integrins α2, α3, αV, and β3” value [4] was “did not effect the surface expression” and the “integrin β1 expression intensity” value (integrin β1; DU-145 cells, 12 h) was “significantly smaller shift”. For the same compound, the “integrin β1 surface expression” value (integrin β1; PC-3 cells, 12-24 hrs) was “undetectable”, the “CD31+ (vascularity)” value ([5]; 100 mg/kg) was 15.1 ± 0.7 and the “Ki67 (proliferation index), %” value ([5]; 100 mg/kg) was 53.9%. The “TUNEL (apoptotic index)” value ([5]; 100 mg/kg) was 3.5 ± 1.0, the “CD31+ (vascularity)” value ([5]; 200 mg/kg) was 10.1 ± 0.4 and the “Ki67 (proliferation index), %” value ([5]; 200 mg/kg) was 49.7%. For the same compound, the “TUNEL (apoptotic index)” value ([5]; 200 mg/kg) was 3.4 ± 1.2, the tumor volume ([5]; DU-145 xenografts, 200 mg/kg p.o., 14 d after palpable tumor formation) was “significant reduction in tumor volume” and the “prostate tumor development (growth initiation)” value ([6]; PC-3 inoculation with simultaneous treatment, 200 mg/kg p.o., 2 wks) was “dramatically suppressed”. For the same compound, the “CD31+ (vascularity)” value ([6]; 100 mg/kg) was 13.5 ± 1.9, the “Ki67 (proliferation index), %” value ([6]; 100 mg/kg) was 42.6% and the “TUNEL (apoptotic index)” value ([6]; 100 mg/kg) was 2.0 ± 0.8. The “CD31+ (vascularity)” value ([6]; 200 mg/kg) was 6.5 ± 0.6, the “Ki67 (proliferation index), %” value ([6]; 200 mg/kg) was 45.0% and the “TUNEL (apoptotic index)” value ([6]; 200 mg/kg) was 1.4 ± 0.4. The tumor volume ([6]; PC-3 xenografts, 200 mg/kg p.o., 14 d after palpable tumor formation) was “significant reduction in tumor volume”, the “angiogenesis/vascularity (number of blood vessels per CAM)” value [7] was “significant suppression of angiogenesis/vascularity” and the “gross and histological examination of lung, liver, spleen, and prostate” value ([8]; compared to control animals) was “no apparent changes”. The “animal's behavioral pattern and weight” value [8] was “no change”, the cell viability/cell death ([9]; PC-3 and HMVEC-L cells, 10M, first 24 hrs of treatment) was “no effect on cell viability/cell death” and the cell viability ([9]; endothelial and epithelial cell lines, 24 and 48 hrs, 5-25 μmol/L) was “reduced cell viability”. The “tube formation in the presence of VEGF” value (HUVEC; 10 μmol/L with VEGF) was “VEGF cannot reverse the antiangiogenic effect”, the “vascular endothelial cell tube formation” value (HUVEC) was “significantly inhibited” and the “attachment of tumor epithelial cells to an endothelial monolayer” value [10] was “significantly inhibited”. For the same compound, the “number of metastatic foci to the lungs” value [11] was “significant reduction”, the “attachment of DU-145 cells to fibronectin or collagen” value (DU-145 cells [12]) was “neither fibronectin nor collagen, was significantly inhibited” and the “attachment of PC-3 cells to fibronectin or collagen” value (PC-3 cells [13]) was “reduced the ability of PC-3 cells to attach to either fibronectin or collagen, but this effect was not statistically significant”.

For `COc1cc2nc(N3CCN(S(=O)(=O)c4ccc(-c5ccccc5)cc4)CC3)nc(N)c2cc1OC` [DZ-3], the apoptosis induction (PC-3 cells [3]) was “trigger apoptotic cell death”.

For `COc1cc2nc(N3CCN(S(=O)(=O)c4c(C(C)C)cc(C(C)C)cc4C(C)C)CC3)nc(N)c2cc1OC` [DZ-10, 2-[4-(2,4,6-triisopropylbenzenesulfonyl)-piperazin-1-yl]-6,7-dimethoxyquinazolin-4-yl-amine], the “effect on cell viability” value ([9]; negative control compound of the tube formation assay) was “no effect on cell viability” and the “vascular endothelial cell tube formation” value (HUVEC) was “does not change the ability of HUVEC cells to form multibranched tubular networks”.
